This passage reports EC50 and IC50 results from patent US11787775B2, “Therapeutic compounds and methods of use” (priority 2020, dated 2023).

What all share (format): binding
One assay has as its target TEAD2 YAP50-100 (Homo sapiens (Human), UniProt Q15562). Nature of the assay: TEAD-YAP protein-protein interaction HTRF assay. To be noted: TEAD2 YAP50-100 HTRF combined EC50, 30 mins incubation with compound. On the procedure:
(§1) Purified His-tagged TEAD protein (YAP Binding Domain, amino acids 217-447) is pre-incubated with Europium labelled anti-His antibody tracer (Perkin Elmer Cat #AD0110). Small molecule Inhibitors are then incubated with the TEAD-Eu protein complex for 30 minutes or 4 hours to allow for binding to TEAD protein. Biotinylated YAP peptide for TEAD-YAP assays (AA's 50-100) or biotinylated TAZ peptide for TEAD-TAZ assays (AA's 13-57) that has been pre-incubated with streptavidin −xl665 acceptor (CIS-Bio Cat #610SAXAC) or is added to the compound-TEAD mix. The TEAD-YAP-inhibitor mixture is then incubated for 60 minutes at room temperature. All reactions are carried out in a polystyrene plate. After 60 minutes, the plate is read on a plate reader using TR-FRET mode with wavelengths of 665 nm/615 nm. If YAP or TAZ binds to TEAD as expected, a TR-FRET signal results from the proximity of YAP or TAZ and TEAD after binding. If an inhibitor such as peptide 17 (Selleckchem Cat #S8164) interferes with YAP-TEAD or TAZ-TEAD binding, the disruption of the YAP or TAZ:TEAD interaction results in a decrease in TR-FRET signal. The potency of compounds as YAP:TEAD or TAZ:TEAD protein-protein interaction (PPi) inhibitors is determined by an IC50 or EC50 value generated using a non-linear four parameter curve fit. The extent to which representative examples of the disclosed compounds are able to inhibit interaction between TEAD1, TEAD2, TEAD3 or TEAD4 and YAP truncated from amino acids 50-100 or TAZ truncated from amino acids 13-57 as measured by Homogeneous Time Resolved Fluorescence (HTRF) to generate EC50 and IC50 data.
(§2) Note that the “Compound Number” in Table 4 corresponds to the “Compound Number” in Table 1. […]
Background: TR-FRET usually uses a lanthanide donor and a delayed reading to cut background.

In another assay the target is TEAD1 YAP50-100 (Homo sapiens (Human), UniProt P28347). Nature of the assay: TEAD-YAP protein-protein interaction HTRF assay. To be noted: TEAD1 YAP50-100 HTRF combined EC50, 30 mins incubation with compound. As to the method: as §1, §2
TEAD1 YAP50-100, sequence (P28347 209-426): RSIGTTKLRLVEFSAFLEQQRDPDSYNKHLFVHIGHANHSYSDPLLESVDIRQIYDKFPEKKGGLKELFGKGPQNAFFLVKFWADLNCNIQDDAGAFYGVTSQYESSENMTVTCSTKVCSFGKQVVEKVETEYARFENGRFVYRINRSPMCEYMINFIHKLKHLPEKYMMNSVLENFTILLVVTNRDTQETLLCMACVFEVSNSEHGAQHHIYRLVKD
In another assay the target is TEAD3 YAP50-100 (Homo sapiens (Human), UniProt Q99594). Nature of the assay: TEAD-YAP protein-protein interaction HTRF assay. To be noted: TEAD3 YAP50-100 HTRF combined EC50, 30 mins incubation with compound. As to the method: as §1, §2
TEAD3 YAP50-100, sequence (Q99594 218-435): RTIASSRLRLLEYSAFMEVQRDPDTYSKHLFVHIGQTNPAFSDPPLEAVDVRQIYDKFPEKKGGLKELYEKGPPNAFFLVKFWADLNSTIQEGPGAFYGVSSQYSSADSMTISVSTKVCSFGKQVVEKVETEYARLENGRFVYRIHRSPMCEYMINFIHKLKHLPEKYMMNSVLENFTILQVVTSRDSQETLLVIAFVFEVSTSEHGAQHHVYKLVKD
A further assay addresses TEAD4 YAP50-100 (Homo sapiens (Human), UniProt Q15561). Description: TEAD-YAP protein-protein interaction HTRF assay. As to conditions: TEAD4 YAP50-100 HTRF combined EC50, 30 mins incubation with compound. On the procedure:
as §1, §2

A further assay has as its target TEAD3 (Homo sapiens (Human), UniProt Q99594). Nature of the assay: TEAD lipid pocket TR-FRET (Lipid HTRF) probe competition assay. As to conditions: 30 mins incubation with compound.
A further assay concerns the target TEAD4 (Homo sapiens (Human), UniProt Q15561). Described as above. As to conditions: 30 mins incubation with compound; read-out: Lipid HTRF TEAD4 IC50.
In the next assay the target is TEAD1 (Homo sapiens (Human), UniProt P28347). Described as above. As to conditions: 30 mins incubation with compound; read-out: Lipid HTRF TEAD1 IC50.
TEAD1, sequence (P28347 whole entry, species assumed): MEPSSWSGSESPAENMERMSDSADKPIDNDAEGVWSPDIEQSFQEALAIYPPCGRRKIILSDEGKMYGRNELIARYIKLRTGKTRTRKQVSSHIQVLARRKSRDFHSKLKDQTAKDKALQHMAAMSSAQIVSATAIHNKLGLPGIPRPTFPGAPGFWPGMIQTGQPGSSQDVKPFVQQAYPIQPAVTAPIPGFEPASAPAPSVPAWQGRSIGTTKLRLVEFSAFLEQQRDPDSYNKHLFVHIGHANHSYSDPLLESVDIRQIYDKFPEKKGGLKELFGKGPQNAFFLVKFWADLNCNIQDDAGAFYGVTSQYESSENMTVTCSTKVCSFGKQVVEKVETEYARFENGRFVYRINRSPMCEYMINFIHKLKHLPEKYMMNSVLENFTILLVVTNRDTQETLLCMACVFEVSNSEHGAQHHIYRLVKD
For another assay, the target named is TEAD2 (Homo sapiens (Human), UniProt Q15562). The description is as above. To be noted: 30 mins incubation with compound; read-out: Lipid HTRF TEAD2 IC50.
TEAD2, sequence (Q15562 whole entry): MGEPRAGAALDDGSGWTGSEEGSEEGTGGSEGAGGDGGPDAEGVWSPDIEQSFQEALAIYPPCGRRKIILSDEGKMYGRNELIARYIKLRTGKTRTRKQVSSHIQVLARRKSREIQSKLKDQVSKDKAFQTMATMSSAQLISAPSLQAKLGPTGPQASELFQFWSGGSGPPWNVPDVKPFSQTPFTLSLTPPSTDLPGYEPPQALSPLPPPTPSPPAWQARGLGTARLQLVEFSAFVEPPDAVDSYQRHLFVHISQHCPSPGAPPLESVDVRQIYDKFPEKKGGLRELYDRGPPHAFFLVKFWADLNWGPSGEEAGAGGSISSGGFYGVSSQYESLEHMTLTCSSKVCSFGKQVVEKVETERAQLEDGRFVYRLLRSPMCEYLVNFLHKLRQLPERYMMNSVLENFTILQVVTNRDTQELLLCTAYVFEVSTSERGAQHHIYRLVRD

The structures appear in SMILES notation. Bounds are passed on as bounds.

TEAD4 YAP50-100, sequence (Q15561 217-434): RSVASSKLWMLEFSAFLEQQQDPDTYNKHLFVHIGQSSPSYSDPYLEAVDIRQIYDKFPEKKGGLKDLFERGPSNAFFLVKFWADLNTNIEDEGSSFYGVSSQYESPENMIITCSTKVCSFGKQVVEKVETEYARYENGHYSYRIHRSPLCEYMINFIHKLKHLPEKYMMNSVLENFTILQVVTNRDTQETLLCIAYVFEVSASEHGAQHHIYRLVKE
TEAD3, sequence (Q99594 whole entry, species assumed): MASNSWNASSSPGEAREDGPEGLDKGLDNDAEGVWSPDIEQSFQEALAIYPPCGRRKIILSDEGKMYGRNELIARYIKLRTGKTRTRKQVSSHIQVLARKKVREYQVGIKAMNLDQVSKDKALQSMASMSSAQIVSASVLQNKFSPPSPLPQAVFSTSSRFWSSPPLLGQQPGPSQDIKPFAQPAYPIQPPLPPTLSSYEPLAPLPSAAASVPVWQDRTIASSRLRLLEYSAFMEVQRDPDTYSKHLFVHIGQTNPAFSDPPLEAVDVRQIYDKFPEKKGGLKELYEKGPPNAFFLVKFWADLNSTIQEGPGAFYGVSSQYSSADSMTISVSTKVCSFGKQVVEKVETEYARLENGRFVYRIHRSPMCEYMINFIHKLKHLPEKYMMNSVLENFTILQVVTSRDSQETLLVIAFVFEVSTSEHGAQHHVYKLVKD
TEAD2 YAP50-100, sequence (Q15562 217-447): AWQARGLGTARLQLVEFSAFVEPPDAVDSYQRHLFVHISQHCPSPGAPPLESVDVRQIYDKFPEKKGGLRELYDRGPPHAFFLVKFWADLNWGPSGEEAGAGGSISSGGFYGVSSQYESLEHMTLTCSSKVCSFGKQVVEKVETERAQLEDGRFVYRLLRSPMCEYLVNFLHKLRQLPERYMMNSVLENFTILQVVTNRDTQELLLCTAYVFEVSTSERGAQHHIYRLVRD
TEAD4, sequence (Q15561 whole entry, species assumed): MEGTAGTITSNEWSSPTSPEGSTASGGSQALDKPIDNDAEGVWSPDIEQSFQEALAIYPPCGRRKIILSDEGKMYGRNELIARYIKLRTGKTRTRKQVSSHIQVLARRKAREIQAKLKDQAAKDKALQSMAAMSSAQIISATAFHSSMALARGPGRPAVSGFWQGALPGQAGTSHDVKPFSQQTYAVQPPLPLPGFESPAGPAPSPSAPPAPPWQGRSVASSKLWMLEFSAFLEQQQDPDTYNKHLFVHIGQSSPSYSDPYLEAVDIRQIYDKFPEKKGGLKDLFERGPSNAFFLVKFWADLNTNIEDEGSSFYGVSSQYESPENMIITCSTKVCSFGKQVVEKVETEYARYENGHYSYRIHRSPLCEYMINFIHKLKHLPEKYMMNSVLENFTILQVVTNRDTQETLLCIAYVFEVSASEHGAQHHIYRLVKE

A word on the EC50: it is the concentration at which the effect is half-maximal. Usually IC50 stands for the concentration at which inhibition is half-maximal. Regarding `C=C(CNc1cc(-c2ccc(C(C)C)cc2)c2c(c1C(N)=O)CCO2)C(=O)O` [Compound 34, 2-[[[4-carbamoyl-7-(4-isopropylphenyl)-2,3-dihydrobenzofuran-5-yl]amino]methyl]prop-2-enoic acid], the concentration giving a half-maximal response (EC50) was 0.58 µM on TEAD2 YAP50-100, 1 µM on TEAD1 YAP50-100, more than 50 µM on TEAD3 YAP50-100 and 0.7 µM on TEAD4 YAP50-100. Moreover, the half-inhibitory concentration (IC50) on TEAD3 is more than 50 µM; on TEAD4 it was 0.33 µM; on TEAD1, 1.8 µM; at TEAD2, 0.97 µM.
`C=C(CNc1cc(-c2ccc(OC(F)(F)F)cc2)c2ncsc2c1C#N)C(N)=O` [Compound 42, 2-[[[7-cyano-4-[4-(trifluoromethoxy)phenyl]-1,3-benzothiazol-6-yl]amino]methyl]prop-2-enamide]: the EC50 at TEAD2 YAP50-100, at TEAD1 YAP50-100, on TEAD3 YAP50-100 and at TEAD4 YAP50-100 was more than 50 µM each time. In addition, the IC50 was more than 50 µM on TEAD3, 0.26 µM at TEAD4, 0.37 µM on TEAD1 and 0.14 µM at TEAD2.
Turning to `C=C(CNc1cc(-c2ccc(C(C)C)cn2)c2c(c1C#N)CCO2)C(=O)O` [Compound 47, 2-[[[4-cyano-7-(5-isopropyl-2-pyridyl)-2,3-dihydrobenzofuran-5-yl]amino]methyl]prop-2-enoic acid], the EC50 at TEAD2 YAP50-100 was 1.9 µM; on TEAD1 YAP50-100 it was 1.9 µM; at TEAD3 YAP50-100, more than 50 µM; at TEAD4 YAP50-100, 3.4 µM. For the same compound, the IC50 is more than 50 µM on TEAD3, 1.5 µM at TEAD4, 2.2 µM on TEAD1 and 2.7 µM at TEAD2.
Take `C=C(CNc1cc(-c2ccc(C(C)C)cc2)c2c(c1S(C)(=O)=O)CCO2)C(=O)O` [Compound 50, 2-[[[7-(4-isopropylphenyl)-4-methylsulfonyl-2,3-dihydrobenzofuran-5-yl]amino]methyl]prop-2-enoic acid]: the EC50 at TEAD2 YAP50-100 stood at 0.08 µM; at TEAD1 YAP50-100 it was 0.53 µM; at TEAD3 YAP50-100, 17 µM; on TEAD4 YAP50-100, 2 µM. For the same compound, the IC50 was 44.5 µM on TEAD3, 0.59 µM at TEAD4, 0.74 µM on TEAD1 and 0.1 µM on TEAD2.
